# Target: ClpC (with MecA) (Streptococcus mutans, UniProt Q8DS14)
# Conditions: 2 mM ATP, 5 mM MgCl2, 100 mM KCl, 25 mM Tris-HCl pH 8.0, 37 °C; 0.3 uM proteins; MecA present
# Chain of ClpC (with MecA) (Q8DW33 whole entry): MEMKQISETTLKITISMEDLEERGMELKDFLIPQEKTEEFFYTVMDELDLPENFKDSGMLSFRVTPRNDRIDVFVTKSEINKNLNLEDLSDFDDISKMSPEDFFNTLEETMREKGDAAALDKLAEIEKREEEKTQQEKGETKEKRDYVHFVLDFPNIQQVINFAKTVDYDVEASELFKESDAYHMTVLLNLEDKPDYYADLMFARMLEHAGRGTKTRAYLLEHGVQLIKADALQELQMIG
# Chain of ClpC (with MecA) (Q8DS14 entry or part of it): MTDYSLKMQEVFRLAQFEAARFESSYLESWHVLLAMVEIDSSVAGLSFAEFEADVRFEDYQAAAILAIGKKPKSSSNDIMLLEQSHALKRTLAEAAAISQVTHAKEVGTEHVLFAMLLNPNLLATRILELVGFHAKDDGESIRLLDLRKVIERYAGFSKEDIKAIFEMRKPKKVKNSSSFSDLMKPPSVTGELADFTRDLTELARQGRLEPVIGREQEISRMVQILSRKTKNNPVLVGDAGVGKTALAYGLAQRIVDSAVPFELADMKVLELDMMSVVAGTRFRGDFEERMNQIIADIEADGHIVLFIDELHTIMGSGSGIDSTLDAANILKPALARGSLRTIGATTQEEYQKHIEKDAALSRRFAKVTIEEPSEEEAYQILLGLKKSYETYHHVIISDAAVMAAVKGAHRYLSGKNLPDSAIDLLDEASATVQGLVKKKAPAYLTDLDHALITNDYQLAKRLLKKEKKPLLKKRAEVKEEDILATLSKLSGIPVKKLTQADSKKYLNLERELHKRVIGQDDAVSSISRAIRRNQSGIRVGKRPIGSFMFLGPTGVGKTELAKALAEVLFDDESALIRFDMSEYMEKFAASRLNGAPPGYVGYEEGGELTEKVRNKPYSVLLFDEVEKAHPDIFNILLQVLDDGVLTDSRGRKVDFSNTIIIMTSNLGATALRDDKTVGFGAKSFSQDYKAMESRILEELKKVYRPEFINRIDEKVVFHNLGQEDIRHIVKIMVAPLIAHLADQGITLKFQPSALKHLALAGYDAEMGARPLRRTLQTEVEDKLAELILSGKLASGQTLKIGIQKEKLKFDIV
smiles,measurement,value
Nc1ncnc2c1ncn2[C@@H]1O[C@H](COP(=O)(O)OP(=O)(O)OP(=O)(O)O)[C@@H](O)[C@H]1O [ATP],malachite green ATPase assay (released orthophosphate),the presence of MecA increased the ATPase activity of ClpC (Figure 6A)

# Reference: publication PMC4109385 (BMC Microbiology, 2014)
